In patent US20080280939A1, “Combination of Organic Compounds” (priority 2004, published 2008):

Assays:
[1] = 4-week toxicity study in rats; type: in vivo
Procedure: (§1) Rapamycin or derivatives thereof are well tolerated at dosages required for use in accordance with the present invention. For example, the NTEL for Compound A in a 4-week toxicity study is 0.5 mg/kg/day in rats and 1.5 mg/kg/day in monkeys.

[2] = 4-week toxicity study in monkeys; type: in vivo
Procedure: as §1

CO[C@H]1C[C@@H]2CC[C@@H](C)[C@@](O)(O2)C(=O)C(=O)N2CCCC[C@H]2C(=O)O[C@H]([C@H](C)C[C@@H]2CC[C@@H](OCCO)[C@H](OC)C2)CC(=O)[C@H](C)/C=C(\C)[C@@H](O)[C@@H](OC)C(=O)[C@H](C)C[C@H](C)/C=C/C=C/C=C/1C [Compound A, 40-0-(2-hydroxyethyl)-rapamycin]
NTEL [1]: 0.5 mg/kg/day | NTEL [2]: 1.5 mg/kg/day
